The results in this text go back to patent US9422293B2 (priority 2006, dated 2016).

Structures can show the parent of a compound that is named as a salt.

In this experiment the target is rat TRPV1 (Rattus norvegicus (Rat), UniProt O35433). As to conditions: read-out: Rat IC50.
rat TRPV1, sequence (O35433 whole entry): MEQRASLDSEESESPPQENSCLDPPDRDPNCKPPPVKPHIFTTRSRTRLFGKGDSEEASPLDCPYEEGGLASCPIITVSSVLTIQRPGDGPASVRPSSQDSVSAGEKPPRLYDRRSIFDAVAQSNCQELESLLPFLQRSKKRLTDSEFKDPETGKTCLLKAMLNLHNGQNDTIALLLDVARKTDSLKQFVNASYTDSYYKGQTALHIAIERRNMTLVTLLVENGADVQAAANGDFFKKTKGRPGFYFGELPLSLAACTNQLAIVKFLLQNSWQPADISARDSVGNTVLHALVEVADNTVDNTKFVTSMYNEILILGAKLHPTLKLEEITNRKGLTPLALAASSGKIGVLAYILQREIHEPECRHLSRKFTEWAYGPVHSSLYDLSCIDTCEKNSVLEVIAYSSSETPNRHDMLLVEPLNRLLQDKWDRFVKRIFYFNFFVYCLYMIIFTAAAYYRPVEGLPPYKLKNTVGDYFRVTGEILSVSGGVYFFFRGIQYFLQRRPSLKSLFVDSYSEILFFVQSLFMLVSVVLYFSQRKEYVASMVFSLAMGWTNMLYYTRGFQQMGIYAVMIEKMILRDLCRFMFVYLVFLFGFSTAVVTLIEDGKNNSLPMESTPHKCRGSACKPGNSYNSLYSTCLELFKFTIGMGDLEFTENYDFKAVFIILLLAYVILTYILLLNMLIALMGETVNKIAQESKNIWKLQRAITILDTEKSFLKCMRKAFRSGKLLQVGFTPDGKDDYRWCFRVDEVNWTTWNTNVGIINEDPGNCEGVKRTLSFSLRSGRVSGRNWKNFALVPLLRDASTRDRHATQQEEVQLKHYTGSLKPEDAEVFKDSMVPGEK
For the compound `CC(C)c1nc2c(c(Nc3ccc(C(F)(F)F)cc3)n1)CCN(c1ncccc1[N+](=O)[O-])CC2` [Example 88, [2-Isopropyl-7-(3-nitro-pyridin-2-yl)-6,7,8,9-tetrahydro-5H-pyrimido[4,5-d]azepin-4-yl]-(4-trifluoromethyl-phenyl)-amine], the IC50 (as a rule, the concentration that inhibits the measured activity by half) amounted to 960 nM. Regarding `O=C1CN(c2nc3c(c(Nc4ccc(C(F)(F)F)cc4)n2)CCN(c2ncccc2C(F)(F)F)CC3)CCN1` [Example 90B, 4-[4-(4-Trifluoromethyl-phenylamino)-7-(3-trifluoromethyl-pyridin-2-yl)-6,7,8,9-tetrahydro-5H-pyrimido[4,5-d]azepin-2-yl]-piperazin-2-one trifluoroacetic acid salt], the IC50 is > 6700 nM. Then `O[C@@H]1CCCN(c2nc3c(c(Nc4ccc(C(F)(F)F)cc4)n2)CCN(c2ncccc2C(F)(F)F)CC3)C1` [Example 91B, (R)-1-[4-(4-Trifluoromethyl-phenylamino)-7-(3-trifluoromethyl-pyridin-2-yl)-6,7,8,9-tetrahydro-5H-pyrimido[4,5-d]azepin-2-yl]-piperidin-3-ol trifluoroacetic acid salt], with 240 nM. On to `CN1CCN(c2nc3c(c(Nc4ccc(C(F)(F)F)cc4)n2)CCN(c2ncccc2C(F)(F)F)CC3)CC1` [Example 92B, [2-(4-Methyl-piperazin-1-yl)-7-(3-trifluoromethyl-pyridin-2-yl)-6,7,8,9-tetrahydro-5H-pyrimido[4,5-d]azepin-4-yl]-(4-trifluoromethyl-phenyl)-amine trifluoroacetic acid salt], for which the IC50 was 270 nM. Then `COCCN(C)c1nc2c(c(Nc3ccc(C(F)(F)F)cc3)n1)CCN(c1ncccc1C(F)(F)F)CC2` [Example 93B, N^2-(2-Methoxy-ethyl)-N^2-methyl-N^4-(4-trifluoromethyl-phenyl)-7-(3-trifluoromethyl-pyridin-2-yl)-6,7,8,9-tetrahydro-5H-pyrimido[4,5-d]azepine-2,4-diamine trifluoroacetic acid salt], with 37 nM; and `O[C@H]1CCCN(c2nc3c(c(Nc4ccc(C(F)(F)F)cc4)n2)CCN(c2ncccc2C(F)(F)F)CC3)C1` [Example 94B, (S)-1-[4-(4-Trifluoromethyl-phenylamino)-7-(3-trifluoromethyl-pyridin-2-yl)-6,7,8,9-tetrahydro-5H-pyrimido[4,5-d]azepin-2-yl]-piperidin-3-ol trifluoroacetic acid salt], with 190 nM; and `FC(F)(F)c1ccc(Nc2nc(NCC3CC3)nc3c2CCN(c2ncccc2C(F)(F)F)CC3)cc1` [Example 95B, N^2-Cyclopropylmethyl-N^4-(4-trifluoromethyl-phenyl)-7-(3-trifluoromethyl-pyridin-2-yl)-6,7,8,9-tetrahydro-5H-pyrimido[4,5-d]azepine-2,4-diamine trifluoroacetic acid salt], with 82 nM. For `CC(=O)c1ccc(Nc2nc(C(C)C)nc3c2CCN(c2ncccc2C(F)(F)F)CC3)cc1` [Example 96, 1-{4-[2-Isopropyl-7-(3-trifluoromethyl-pyridin-2-yl)-6,7,8,9-tetrahydro-5H-pyrimido[4,5-d]azepin-4-ylamino]-phenyl}-ethanone], the IC50 was 340 nM. As to `CC(C)c1nc2c(c(Nc3ccc(C#N)cc3)n1)CCN(c1ncccc1C(F)(F)F)CC2` [Example 97, 4-[2-Isopropyl-7-(3-trifluoromethyl-pyridin-2-yl)-6,7,8,9-tetrahydro-5H-pyrimido[4,5-d]azepin-4-ylamino]-benzonitrile], the IC50 was found to be 490 nM. As for `FC(F)(F)c1ccc(Nc2nc(N3CCNCC3)nc3c2CCN(c2ncccc2C(F)(F)F)CC3)cc1` [Example 99B, [2-Piperazin-1-yl-7-(3-trifluoromethyl-pyridin-2-yl)-6,7,8,9-tetrahydro-5H-pyrimido[4,5-d]azepin-4-yl]-(4-trifluoromethyl-phenyl)-amine trifluoroacetic acid salt], the IC50 is 7200 nM. For the compound `FC(F)(F)c1ccc(Nc2nc(N3CCSCC3)nc3c2CCN(c2ncccc2C(F)(F)F)CC3)cc1` [Example 100, [2-Thiomorpholin-4-yl-7-(3-trifluoromethyl-pyridin-2-yl)-6,7,8,9-tetrahydro-5H-pyrimido[4,5-d]azepin-4-yl]-(4-trifluoromethyl-phenyl)-amine], the IC50 came to 31 nM. Next, `CC(C)c1nc2c(c(Nc3ccc(S(=O)(=O)C(F)(F)F)cc3)n1)CCN(c1ncccc1C(F)(F)F)CC2` [Example 101B, [2-Isopropyl-7-(3-trifluoromethyl-pyridin-2-yl)-6,7,8,9-tetrahydro-5H-pyrimido[4,5-d]azepin-4-yl]-(4-trifluoromethanesulfonyl-phenyl)-amine trifluoroacetic acid salt]: 990 nM; `FC(F)(F)c1ccc(Nc2nc(N3CCN(Cc4ccccc4)CC3)nc3c2CCN(c2ncccc2C(F)(F)F)CC3)cc1` [Example 102, [2-(4-Benzyl-piperazin-1-yl)-7-(3-trifluoromethyl-pyridin-2-yl)-6,7,8,9-tetrahydro-5H-pyrimido[4,5-d]azepin-4-yl]-(4-trifluoromethyl-phenyl)-amine]: 170 nM; `COC(=O)c1ccc(Nc2nc(C(C)C)nc3c2CCN(c2ncccc2C(F)(F)F)CC3)cc1` [Example 103, 4-[2-Isopropyl-7-(3-trifluoromethyl-pyridin-2-yl)-6,7,8,9-tetrahydro-5H-pyrimido[4,5-d]azepin-4-ylamino]-benzoic acid methyl ester]: 340 nM. On to `CC(C)c1nc2c(c(Nc3ccc(SC(F)(F)F)cc3)n1)CCN(c1ncccc1C(F)(F)F)CC2` [Example 104, [2-Isopropyl-7-(3-trifluoromethyl-pyridin-2-yl)-6,7,8,9-tetrahydro-5H-pyrimido[4,5-d]azepin-4-yl]-(4-trifluoromethylsulfanyl-phenyl)-amine], for which the IC50 amounted to 320 nM. In the case of `FC(F)(F)c1ccc(Nc2nc(N3CCCC3)nc3c2CCN(c2ncccc2C(F)(F)F)CC3)cc1` [Example 106, [2-Pyrrolidin-1-yl-7-(3-trifluoromethyl-pyridin-2-yl)-6,7,8,9-tetrahydro-5H-pyrimido[4,5-d]azepin-4-yl]-(4-trifluoromethyl-phenyl)-amine], the IC50 is 62 nM.

On to `CC(C)c1nc2c(c(NCCc3ccc(Cl)c(Cl)c3)n1)CCN(c1ncccc1C(F)(F)F)CC2` [Example 108, [2-(3,4-Dichloro-phenyl)-ethyl]-[2-isopropyl-7-(3-trifluoromethyl-pyridin-2-yl)-6,7,8,9-tetrahydro-5H-pyrimido[4,5-d]azepin-4-yl]-amine], for which the IC50 is 940 nM. Next, `CC(C)c1nc2c(c(Nc3ccc(Cl)c(Cl)c3)n1)CCN(c1ncccc1C(F)(F)F)CC2` [Example 109, (3,4-Dichloro-phenyl)-[2-isopropyl-7-(3-trifluoromethyl-pyridin-2-yl)-6,7,8,9-tetrahydro-5H-pyrimido[4,5-d]azepin-4-yl]-amine]: 580 nM; `CC(C)c1nc2c(c(NCc3ccc(Cl)c(C(F)(F)F)c3)n1)CCN(c1ncccc1C(F)(F)F)CC2` [Example 115, N-{[4-Chloro-3-(trifluoromethyl)phenyl]methyl}-2-(1-methylethyl)-7-[3-(trifluoromethyl)pyridin-2-yl]-6,7,8,9-tetrahydro-5H-pyrimido[4,5-d]azepin-4-amine]: 3790 nM; `CC(C)c1nc2c(c(NCc3ccc(C(F)(F)F)nc3)n1)CCN(c1ncccc1C(F)(F)F)CC2` [Example 116, 2-(1-Methylethyl)-7-[3-(trifluoromethyl)pyridin-2-yl]-N-{[6-(trifluoromethyl)pyridin-3-yl]methyl}-6,7,8,9-tetrahydro-5H-pyrimido[4,5-d]azepin-4-amine]: 7030 nM. As to `CC(C)c1nc2c(c(NCc3ccc(C(F)(F)F)cc3)n1)CCN(c1ncccc1C(F)(F)F)CC2` [Example 117, 2-(1-Methylethyl)-N-{[4-(trifluoromethyl)phenyl]methyl}-7-[3-(trifluoromethyl)pyridin-2-yl]-6,7,8,9-tetrahydro-5H-pyrimido[4,5-d]azepin-4-amine], the IC50 came to 13500 nM. On to `CC(C)c1nc2c(c(NCCc3ccccc3F)n1)CCN(c1ncccc1C(F)(F)F)CC2` [Example 118, N-[2-(2-Fluorophenyl)ethyl]-2-(1-methylethyl)-7-[3-(trifluoromethyl)pyridin-2-yl]-6,7,8,9-tetrahydro-5H-pyrimido[4,5-d]azepin-4-amine], for which the IC50 amounted to 500 nM.

On to `CC(C)c1nc2c(c(NCCc3ccccc3Br)n1)CCN(c1ncccc1C(F)(F)F)CC2` [Example 119, N-[2-(2-Bromophenyl)ethyl]-2-(1-methylethyl)-7-[3-(trifluoromethyl)pyridin-2-yl]-6,7,8,9-tetrahydro-5H-pyrimido[4,5-d]azepin-4-amine], for which the IC50 turned out to be 1220 nM. Next, `CC(C)c1nc2c(c(NCc3c(Cl)cccc3Cl)n1)CCN(c1ncccc1C(F)(F)F)CC2` [Example 120, N-[(2,6-Dichlorophenyl)methyl]-2-(1-methylethyl)-7-[3-(trifluoromethyl)pyridin-2-yl]-6,7,8,9-tetrahydro-5H-pyrimido[4,5-d]azepin-4-amine]: 12000 nM; `CC(C)c1nc2c(c(NC3CCC(C(C)(C)C)CC3)n1)CCN(c1ncccc1C(F)(F)F)CC2` (stereo not drawn) [Example 122, N-[4-(1,1-Dimethylethyl)cyclohexyl]-2-(1-methylethyl)-7-[3-(trifluoromethyl)pyridin-2-yl]-6,7,8,9-tetrahydro-5H-pyrimido[4,5-d]azepin-4-amine]: 190 nM; `CC(C)c1nc2c(c(NCCc3ccc(Cl)cc3)n1)CCN(c1ncccc1C(F)(F)F)CC2` [Example 124, N-[2-(4-Chlorophenyl)ethyl]-2-(1-methylethyl)-7-[3-(trifluoromethyl)pyridin-2-yl]-6,7,8,9-tetrahydro-5H-pyrimido[4,5-d]azepin-4-amine]: 570 nM.

Take `CC(C)c1nc2c(c(NCCc3c(Cl)cccc3Cl)n1)CCN(c1ncccc1C(F)(F)F)CC2` [Example 125, N-[2-(2,6-Dichlorophenyl)ethyl]-2-(1-methylethyl)-7-[3-(trifluoromethyl)pyridin-2-yl]-6,7,8,9-tetrahydro-5H-pyrimido[4,5-d]azepin-4-amine]: the IC50 came to 610 nM.
